Consider one compound from publication PMC7692329, “Inhibitory Effect of AB-PINACA, Indazole Carboxamide Synthetic Cannabinoid, on Human Major Drug-Metabolizing Enzymes and Transporters” (Pharmaceutics, 2020).

SMILES strings stand for the structures. Read-outs that look alike come from different tables or passages of the source. Bounds are passed on as bounds.

What is called IC50 is the midpoint of a concentration-inhibition curve. For orientation: Ki means a measure of affinity in units of concentration, obtained from inhibition or displacement.

Data set [1] concerns the target UGT1A4 (Homo sapiens, UniProt P22310). Put plainly: UGT1A4 trifluoperazine N-glucuronidation inhibition in ultrapooled human liver microsomes.
Data set [2] concerns the target T1, OAT1 (Homo sapiens, UniProt Q4U2R8).
T1 construct: host or cells: HEK293
In words: OAT1-mediated para-aminohippuric acid uptake in HEK293-OAT1 cells. It counts as in vitro ADME.

In data set [3] the target is T2, P-gp (Homo sapiens, UniProt P08183).
T2 construct: host or cells: LLC-PK1
T2 sequence (P08183 whole entry): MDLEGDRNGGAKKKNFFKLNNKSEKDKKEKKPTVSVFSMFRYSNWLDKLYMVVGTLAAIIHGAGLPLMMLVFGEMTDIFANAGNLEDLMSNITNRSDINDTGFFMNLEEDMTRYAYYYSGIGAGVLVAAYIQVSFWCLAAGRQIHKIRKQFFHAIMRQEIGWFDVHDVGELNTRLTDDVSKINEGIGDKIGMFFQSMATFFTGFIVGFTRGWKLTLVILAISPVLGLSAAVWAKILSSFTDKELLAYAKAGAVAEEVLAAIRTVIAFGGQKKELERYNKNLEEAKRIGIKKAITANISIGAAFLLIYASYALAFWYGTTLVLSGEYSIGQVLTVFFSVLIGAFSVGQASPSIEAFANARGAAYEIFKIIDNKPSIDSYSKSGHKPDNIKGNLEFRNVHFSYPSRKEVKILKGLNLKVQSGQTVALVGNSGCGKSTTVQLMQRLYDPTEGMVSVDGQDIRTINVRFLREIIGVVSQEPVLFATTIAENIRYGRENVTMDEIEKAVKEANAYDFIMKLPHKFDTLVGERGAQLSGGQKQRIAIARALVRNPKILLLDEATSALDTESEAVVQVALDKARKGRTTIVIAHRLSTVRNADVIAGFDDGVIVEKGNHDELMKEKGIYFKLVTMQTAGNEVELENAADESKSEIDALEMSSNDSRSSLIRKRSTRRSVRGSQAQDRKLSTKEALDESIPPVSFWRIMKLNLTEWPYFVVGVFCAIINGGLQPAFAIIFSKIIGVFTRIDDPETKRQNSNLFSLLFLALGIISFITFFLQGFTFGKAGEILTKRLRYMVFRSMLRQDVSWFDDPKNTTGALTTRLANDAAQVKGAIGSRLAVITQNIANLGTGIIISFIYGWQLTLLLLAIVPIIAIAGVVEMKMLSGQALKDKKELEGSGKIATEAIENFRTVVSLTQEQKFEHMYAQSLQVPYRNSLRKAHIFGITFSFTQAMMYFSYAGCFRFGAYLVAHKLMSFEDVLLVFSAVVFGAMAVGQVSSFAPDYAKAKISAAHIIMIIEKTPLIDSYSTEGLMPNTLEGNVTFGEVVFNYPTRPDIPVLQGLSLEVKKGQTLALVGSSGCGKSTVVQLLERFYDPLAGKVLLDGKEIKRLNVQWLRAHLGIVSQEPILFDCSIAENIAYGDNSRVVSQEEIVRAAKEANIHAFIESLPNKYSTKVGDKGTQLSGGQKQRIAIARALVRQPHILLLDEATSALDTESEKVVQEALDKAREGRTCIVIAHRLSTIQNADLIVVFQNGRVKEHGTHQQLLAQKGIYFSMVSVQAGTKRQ
In words: P-gp-mediated B to A transport of digoxin in LLC-PK1-MDR1 cells. It counts as in vitro ADME.

The target in data set [4] is CYP2A6 (Homo sapiens, UniProt P11509). In words: CYP2A6 coumarin 7-hydroxylase inhibition in ultrapooled human liver microsomes. A general note: Liver microsomes are vesicles of endoplasmic reticulum, rich in cytochrome P450 enzymes.
Chain of CYP2A6 (P11509 whole entry): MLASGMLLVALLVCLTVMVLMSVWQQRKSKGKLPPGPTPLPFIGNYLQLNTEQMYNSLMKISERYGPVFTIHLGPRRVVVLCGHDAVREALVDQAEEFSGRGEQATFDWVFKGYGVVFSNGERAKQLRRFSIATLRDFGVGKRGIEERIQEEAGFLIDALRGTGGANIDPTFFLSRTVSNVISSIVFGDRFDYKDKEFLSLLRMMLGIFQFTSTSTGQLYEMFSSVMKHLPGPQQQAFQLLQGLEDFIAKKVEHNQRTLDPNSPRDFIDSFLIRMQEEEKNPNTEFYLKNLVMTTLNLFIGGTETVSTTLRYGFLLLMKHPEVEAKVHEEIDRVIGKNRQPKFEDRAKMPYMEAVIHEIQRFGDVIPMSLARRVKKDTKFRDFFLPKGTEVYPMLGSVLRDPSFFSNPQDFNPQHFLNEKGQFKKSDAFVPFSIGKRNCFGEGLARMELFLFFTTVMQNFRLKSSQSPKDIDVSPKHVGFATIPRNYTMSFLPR
Data set [5] addresses T3, OATP1B1 (Homo sapiens, UniProt Q9Y6L6).
T3 construct: host or cells: HEK293
Put plainly: OATP1B1-mediated estrone-3-sulfate uptake in HEK293-OATP1B1 cells. It counts as in vitro ADME.

Data set [6] addresses T4, BCRP (Homo sapiens, UniProt Q9UNQ0).
T4 construct: host or cells: LLC-PK1
In words: BCRP-mediated B to A transport of estrone-3-sulfate in LLC-PK1-BCRP cells. It counts as in vitro ADME.

Data set [7] concerns the target T5, CYP2C8 (Homo sapiens, UniProt P10632).
T5 sequence (P10632 1-490): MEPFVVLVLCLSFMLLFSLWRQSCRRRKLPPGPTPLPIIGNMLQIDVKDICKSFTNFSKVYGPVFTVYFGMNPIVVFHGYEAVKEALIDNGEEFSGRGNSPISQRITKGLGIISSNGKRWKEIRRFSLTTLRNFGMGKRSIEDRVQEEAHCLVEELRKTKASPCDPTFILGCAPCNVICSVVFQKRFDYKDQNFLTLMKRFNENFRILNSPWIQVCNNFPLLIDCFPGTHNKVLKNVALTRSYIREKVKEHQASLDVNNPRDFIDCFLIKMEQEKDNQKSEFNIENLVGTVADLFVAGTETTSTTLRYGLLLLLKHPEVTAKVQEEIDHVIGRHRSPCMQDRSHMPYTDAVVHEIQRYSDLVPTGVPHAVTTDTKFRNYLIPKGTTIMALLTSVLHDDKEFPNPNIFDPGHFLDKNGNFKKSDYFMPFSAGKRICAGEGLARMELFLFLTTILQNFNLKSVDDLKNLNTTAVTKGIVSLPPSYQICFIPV
Put plainly: CYP2C8 amodiaquine N-deethylase inhibition in ultrapooled human liver microsomes. The conditions noted are these: for IC50: CYP2C8 amodiaquine N-deethylase, ultrapooled human liver microsomes.

In data set [8] the test system is human cannabinoid receptor type 1 (hCB1). Conditions: cited from earlier work.

Chain of UGT1A4 (P22310 29-534): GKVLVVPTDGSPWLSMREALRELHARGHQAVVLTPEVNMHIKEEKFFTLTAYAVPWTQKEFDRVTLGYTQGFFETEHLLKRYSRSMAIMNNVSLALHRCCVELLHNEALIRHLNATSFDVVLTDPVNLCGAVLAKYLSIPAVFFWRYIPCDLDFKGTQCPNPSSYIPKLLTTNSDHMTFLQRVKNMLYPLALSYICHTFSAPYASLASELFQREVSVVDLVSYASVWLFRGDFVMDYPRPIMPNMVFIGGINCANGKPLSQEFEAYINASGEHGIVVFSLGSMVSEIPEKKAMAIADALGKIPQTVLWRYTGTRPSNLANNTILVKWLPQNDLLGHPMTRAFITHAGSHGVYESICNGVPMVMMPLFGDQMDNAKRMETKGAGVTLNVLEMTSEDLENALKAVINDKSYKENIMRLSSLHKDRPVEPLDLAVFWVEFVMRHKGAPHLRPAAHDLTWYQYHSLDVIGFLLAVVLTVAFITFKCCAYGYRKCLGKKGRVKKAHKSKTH
T4 sequence (Q9UNQ0 whole entry): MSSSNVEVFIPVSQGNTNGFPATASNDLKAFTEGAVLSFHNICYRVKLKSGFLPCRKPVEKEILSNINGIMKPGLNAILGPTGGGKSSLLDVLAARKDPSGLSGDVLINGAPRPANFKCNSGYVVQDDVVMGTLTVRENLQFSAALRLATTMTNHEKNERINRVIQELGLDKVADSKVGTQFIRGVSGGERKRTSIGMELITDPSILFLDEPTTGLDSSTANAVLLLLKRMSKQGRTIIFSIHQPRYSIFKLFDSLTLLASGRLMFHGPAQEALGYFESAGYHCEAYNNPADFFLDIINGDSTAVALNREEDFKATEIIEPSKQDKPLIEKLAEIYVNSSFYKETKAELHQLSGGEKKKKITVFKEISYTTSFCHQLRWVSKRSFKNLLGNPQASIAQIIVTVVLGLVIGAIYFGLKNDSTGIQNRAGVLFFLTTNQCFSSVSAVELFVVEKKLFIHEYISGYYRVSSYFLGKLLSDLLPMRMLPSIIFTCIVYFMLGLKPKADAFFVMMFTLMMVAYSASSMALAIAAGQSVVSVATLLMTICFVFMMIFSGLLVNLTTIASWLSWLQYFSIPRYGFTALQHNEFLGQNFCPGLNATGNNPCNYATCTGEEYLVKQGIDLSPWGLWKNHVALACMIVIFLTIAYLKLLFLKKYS
T3 sequence (Q9Y6L6 whole entry): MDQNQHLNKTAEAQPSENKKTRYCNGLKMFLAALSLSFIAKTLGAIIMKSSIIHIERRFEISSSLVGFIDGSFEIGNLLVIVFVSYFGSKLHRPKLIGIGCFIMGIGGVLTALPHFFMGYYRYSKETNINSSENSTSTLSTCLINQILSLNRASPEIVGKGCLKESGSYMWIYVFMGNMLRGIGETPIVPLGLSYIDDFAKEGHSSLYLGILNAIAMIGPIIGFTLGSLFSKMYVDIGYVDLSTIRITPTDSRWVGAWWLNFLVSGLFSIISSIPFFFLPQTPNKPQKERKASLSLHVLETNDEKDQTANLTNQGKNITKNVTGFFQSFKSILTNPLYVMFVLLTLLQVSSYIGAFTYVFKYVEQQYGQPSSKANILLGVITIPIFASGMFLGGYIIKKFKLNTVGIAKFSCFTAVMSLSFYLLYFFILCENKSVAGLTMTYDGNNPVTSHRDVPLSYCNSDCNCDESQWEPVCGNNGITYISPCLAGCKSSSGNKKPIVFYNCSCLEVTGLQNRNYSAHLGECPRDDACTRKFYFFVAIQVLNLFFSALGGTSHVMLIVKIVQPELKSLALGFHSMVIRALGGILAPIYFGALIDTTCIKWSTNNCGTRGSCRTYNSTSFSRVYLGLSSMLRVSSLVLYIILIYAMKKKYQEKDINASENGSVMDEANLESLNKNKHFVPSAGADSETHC
T1 sequence (Q4U2R8 whole entry): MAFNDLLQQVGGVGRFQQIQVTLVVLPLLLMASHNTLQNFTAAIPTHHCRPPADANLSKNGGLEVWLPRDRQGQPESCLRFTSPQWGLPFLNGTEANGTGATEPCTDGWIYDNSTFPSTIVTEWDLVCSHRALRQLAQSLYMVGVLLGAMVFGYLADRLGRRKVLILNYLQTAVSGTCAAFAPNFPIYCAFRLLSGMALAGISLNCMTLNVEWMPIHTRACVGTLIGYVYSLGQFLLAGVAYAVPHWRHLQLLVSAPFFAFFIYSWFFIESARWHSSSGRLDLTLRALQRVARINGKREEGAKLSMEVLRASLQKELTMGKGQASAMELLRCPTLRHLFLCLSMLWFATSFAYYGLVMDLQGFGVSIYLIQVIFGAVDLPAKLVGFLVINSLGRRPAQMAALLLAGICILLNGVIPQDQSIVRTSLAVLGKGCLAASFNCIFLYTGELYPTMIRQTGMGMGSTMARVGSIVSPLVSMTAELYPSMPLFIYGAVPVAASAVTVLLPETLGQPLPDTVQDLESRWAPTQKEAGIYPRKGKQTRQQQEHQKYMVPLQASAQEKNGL

Regarding `CCCCCn1nc(C(=O)N[C@H](C(N)=O)C(C)C)c2ccccc21` [AB-PINACA, N-[(2S)-1-amino-3-methyl-1-oxobutan-2-yl]-1-pentyl-1H-indazole-3-carboxamide], the IC50 was greater than 100 µM in data set [1]; greater than 250 µM in data set [2]; greater than 100 µM in data set [3]; greater than 100 µM in data set [4]; greater than 100 µM in data set [4] (read-out: IC50 Without NADPH Preincubation, CYP2A6 coumarin 7-hydroxylase, ultrapooled human liver microsomes, without NADPH preincubation); greater than 250 µM in data set [5]. The half-maximal inhibitory concentration (IC50) in data set [6] was greater than 100 µM; in data set [7] (IC50 With NADPH Preincubation, 30-min preincubation with NADPH) it was 30.1 µM; in data set [7] (IC50 Without NADPH Preincubation, without NADPH preincubation) it was 32.5 µM. The Ki was 16.9 µM in data set [7] and 0.00287 µM in data set [8] (read-out: receptor binding affinity to hCB1 (Ki)). The “Mode of Inhibition, CYP2C8” value in data set [7] (amodiaquine N-deethylation, human liver microsomes) is “mixed mode of inhibition”. Also, in data set [7] (human, liver microsomes, pH 7.4, probe amodiaquine), the IC50 shift at 15 min is 1.1. Besides, in data set [8], the “fold higher in vitro binding affinity to hCB1 compared with Δ9-THC” value was 23.3 fold.
